Data as given in ChEMBL document CHEMBL1201862, “PubChem BioAssay data set” (2004).
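Test compounds were applied to cells in 96-well plates for 48 hours at 5 doses. At the GI50, growth is halved.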 Activity calls are given as the source filed them. Cut-off read from the data, not from the text of the source: active = GI50 up to about 1.1 µM and inactive = higher.

What was measured:
Test in all cases: NCI tumour cell line growth inhibition, 48 h
[1] = tested on: 786-0
[2] = tested on: A498
[3] = tested on: A549
[4] = tested on: DU-145
[5] = tested on: HCT-15
[6] = tested on: IGROV-1
[7] = tested on: LOX IMVI
[8] = tested on: MDA-MB-435
[9] = tested on: NCI-H23
[10] = tested on: NCI-H460
[11] = tested on: NCI-H522
[12] = tested on: OVCAR-4
[13] = tested on: RPMI-8226
[14] = tested on: SF-268
[15] = tested on: SK-MEL-28
[16] = tested on: SK-OV-3
[17] = tested on: SN12C
[18] = tested on: SW-620
[19] = tested on: UACC-62
[20] = tested on: BT-549

SMILES	GI50 [1]	GI50 [2]	GI50 [3]	GI50 [4]	GI50 [5]	GI50 [6]	GI50 [7]	GI50 [8]	GI50 [9]	GI50 [10]	GI50 [11]	GI50 [12]	GI50 [13]	GI50 [14]	GI50 [15]	GI50 [16]	GI50 [17]	GI50 [18]	GI50 [19]	GI50 [20]
COc1cc(/C=C/c2ccc(/C=C/c3cc(OC)c(OC)c(OC)c3)cc2)cc(OC)c1OC	7.94 µM (inactive)	10.5 µM (inactive)	40.9 µM (inactive)	88.7 µM (inactive)	> 100 µM	26.5 µM (inactive)	34.4 µM (inactive)	55.2 µM (inactive)	12.3 µM (inactive)	25.5 µM (inactive)	8.11 µM (inactive)	3.98 µM (inactive)	41.6 µM (inactive)	11.7 µM (inactive)	26.1 µM (inactive)	6 µM (inactive)	56.8 µM (inactive)	> 84.9 µM (inactive)	7.89 µM (inactive)	–
COc1ccc(/C(=N\NC(=S)NN)C(c2ccc(OC)cc2)C2C(=O)Oc3ccccc32)cc1 (stereo not given)	> 10 µM (inactive)	> 10 µM (inactive)	> 10 µM (inactive)	–	> 10 µM	> 10 µM (inactive)	> 10 µM (inactive)	–	> 10 µM (inactive)	> 10 µM (inactive)	65.5 µM (inactive)	> 10 µM (inactive)	> 10 µM (inactive)	> 10 µM (inactive)	56.2 µM (inactive)	> 10 µM (inactive)	> 10 µM (inactive)	> 10 µM (inactive)	> 10 µM (inactive)	–
C#CC(C)(C)OCCCCOc1cc(O)c2c(=O)c3ccccc3n(C)c2c1	> 100 µM (inactive)	91 µM (inactive)	> 100 µM (inactive)	–	> 100 µM	> 100 µM (inactive)	> 100 µM (inactive)	–	> 100 µM (inactive)	57.5 µM (inactive)	> 100 µM (inactive)	> 100 µM (inactive)	> 100 µM (inactive)	> 100 µM (inactive)	> 100 µM (inactive)	> 100 µM (inactive)	> 100 µM (inactive)	> 100 µM (inactive)	> 100 µM (inactive)	–
CNC(=O)/C(C#N)=C(\N)N1CCCC1	> 100 µM (inactive)	> 100 µM (inactive)	> 100 µM (inactive)	> 100 µM (inactive)	> 100 µM	> 100 µM (inactive)	–	> 100 µM (inactive)	> 100 µM (inactive)	> 100 µM (inactive)	> 100 µM (inactive)	–	> 100 µM (inactive)	> 100 µM (inactive)	> 100 µM (inactive)	> 100 µM (inactive)	> 100 µM (inactive)	> 100 µM (inactive)	> 100 µM (inactive)	–
CCCCC1Cc2ccccc2-c2n1c1ccccc1[n+]2C (stereo not given)	38.2 µM (inactive)	23.6 µM (inactive)	–	33.7 µM (inactive)	95.5 µM	17.3 µM (inactive)	10.4 µM (inactive)	10.3 µM (inactive)	2.17 µM (inactive)	16.2 µM (inactive)	3.87 µM (inactive)	24.5 µM (inactive)	1.94 µM (inactive)	11.4 µM (inactive)	11.3 µM (inactive)	35.9 µM (inactive)	–	23.7 µM (inactive)	–	–
Cc1cc(C)nc(/C(=N\NC(N)=O)C(=O)Nc2nc3ccc(C)cc3s2)c1	> 100 µM (inactive)	> 100 µM (inactive)	> 100 µM (inactive)	–	> 70 µM	> 100 µM (inactive)	> 46.6 µM (inactive)	–	> 100 µM (inactive)	> 100 µM (inactive)	> 93.1 µM (inactive)	> 100 µM (inactive)	> 48.2 µM (inactive)	> 100 µM (inactive)	> 100 µM (inactive)	> 100 µM (inactive)	> 100 µM (inactive)	> 100 µM (inactive)	> 100 µM (inactive)	–
CC(C)=NOC(=O)Nc1cccc2c1OCO2	> 100 µM (inactive)	> 100 µM (inactive)	> 100 µM (inactive)	> 100 µM (inactive)	> 100 µM	> 100 µM (inactive)	> 100 µM (inactive)	> 100 µM (inactive)	> 100 µM (inactive)	> 100 µM (inactive)	> 100 µM (inactive)	> 100 µM (inactive)	> 100 µM (inactive)	> 100 µM (inactive)	> 100 µM (inactive)	> 100 µM (inactive)	> 100 µM (inactive)	> 100 µM (inactive)	32.5 µM (inactive)	–
CCOC(=O)c1sc2nc1CSc1sc(=S)sc1SCc1nc(sc1C(=O)OCC)-c1nc(c(C(=O)OCC)s1)CSc1sc(=S)sc1SCc1nc-2sc1C(=O)OCC	> 10 µM (inactive)	–	> 10 µM (inactive)	–	> 10 µM	> 10 µM (inactive)	> 10 µM (inactive)	> 10 µM (inactive)	> 10 µM (inactive)	> 10 µM (inactive)	> 10 µM (inactive)	> 10 µM (inactive)	> 10 µM (inactive)	> 10 µM (inactive)	> 10 µM (inactive)	> 10 µM (inactive)	> 10 µM (inactive)	> 10 µM (inactive)	> 10 µM (inactive)	> 10 µM (inactive)
